Experimental data published in paper PMC5325331, “A steroid like phytochemical Antcin M is an anti-aging reagent that eliminates hyperglycemia-accelerated premature senescence in dermal fibroblasts by direct activation of Nrf2 and SIRT-1” (Oncotarget, 2016).

Legend:
[1] = Cell-free DPPH free-radical scavenging assay
Experimental: Therefore, next to determine whether ANM acts directly as a free-radical scavenger, we performed a cell-free DPPH free-radical scavenging assay.
Figure 5 Antcin M activates Nrf2-dependent anti-oxidant defense in HNDFs A. To determine the free-radical scavenging effect of ANM, cell-free DPPH assay was performed. […] Results expressed as mean ± S.E.M of three indipendent expriments.

HNDFs = experiment: Cell proliferation, trypan blue exclusion assay in HG-induced HNDFs; assay type: cell-based, human; settings: with HG (30 mM) for 72 h (Figure 2D)
Experimental: Cell proliferation was evaluated using trypan blue exclusion assay as described previously with minor modification. Cells were plated into 6-well plates at a density of 5 × 10^4 cells/well. After incubation overnight, cells were treated with test samples in the presence or absence of HG for 24-72 h. Cells exposed to 0.2% Trypan blue were then counted in a hemocytometer, and cells stained with Trypan blue were excluded. Percentage of viable cells was calculated based on the ratio of viable cells to total cell population in each well. The proliferation rate was calculated based on the number of viable cells in HG or sample-treated groups versus the NG-treated group.

## C=C(CCC(C)C1CCC2C3=C(C(=O)C(O)C21C)C1(C)CCC(O)C(C)C1CC3)C(C)C(=O)O (centres unmarked) [ANM, antcin M]
[1]
  free-radical scavenging in the cell-free system: failed to scavenge free radicals
HNDFs
  cell proliferation compared to the HG treatment group: two-fold increase
